*1 amine or outer side, *2 acyl side, *3 side chain or, on linkers, in order; H or OH if unused. Where a SMILES comes first, the peptide text is derived from it. Side-chain parts run from the residue outwards. [ ]: non-standard residue; d: D form. The star is where a group is joined. ξ: configuration not given here. Thz(5,5-Me2) = CC1(C)SCN[C@@H]1C(=O)O; NH(2-Me-phenyl) = Cc1ccccc1N*; ξF = NC(Cc1ccccc1)C(=O)O; Boc = CC(C)(C)OC(=O)*; CO = O=C([*:1])[*:2]
Biological target: Gastrin/cholecystokinin type B receptor (Bos taurus)
Assay: Inhibitory activity against cholecystokinin type B receptor from bovine striatal binding assay

- IC50: 7.4 µM
Structure (SMILES): Cc1ccccc1NC(=O)NCCCC[C@H](NC(=O)[C@H](Cc1c[nH]c2ccccc12)NC(=O)OC(C)(C)C)C(=O)N1CSC(C)(C)[C@H]1C(=O)NC(Cc1ccccc1)C(N)=O (stereo partly specified) [[1-[1-[4-(1-Carbamoyl-2-phenyl-ethylcarbamoyl)-5,5-dimethyl-thiazolidine-3-carbonyl]-5-(3-o-tolyl-ureido)-pentylcarbamoyl]-2-(1H-indol-3-yl)-ethyl]-carbamic acid tert-butyl ester] (Boc-WK([CO-NH(2-Me-phenyl)])[Thz(5,5-Me2)][ξF]-NH2)

Reference: BindingDB's records for doi:10.1021/jm00100a033 (Roche Research Center, 1992)
